Measured values published in PubChem BioAssay (NCI).
“And” between values parts separate entries of the source, which are not always exact repeats. Identical values can stand only once.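 Dose response: 5 concentrations. Exposure: 48 h. Format: 96-well plates. Endpoint: linear interpolation; highest concentration if not reached. GI50 = concentration required for 50% inhibition of growth. The concentration for full growth arrest is given as TGI.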

How the values were obtained:
Assay in all cases: NCI tumour cell line growth inhibition, 48 h
NCI-H460 lung = test system: NCI-H460 lung
ACHN renal = test system: ACHN renal
SF-268 CNS = test system: SF-268 CNS
T-47D breast = test system: T-47D breast
CCRF-CEM leukemia = test system: CCRF-CEM leukemia
SK-MEL-28 melanoma = test system: SK-MEL-28 melanoma
PC-3 prostate = test system: PC-3 prostate
A549 NSCLC = test system: A549 NSCLC
UACC-257 melanoma = test system: UACC-257 melanoma
DU-145 prostate = test system: DU-145 prostate
OVCAR-8 ovarian = test system: OVCAR-8 ovarian
UACC-62 melanoma = test system: UACC-62 melanoma
IGROV1 ovarian = test system: IGROV1 ovarian
SK-MEL-5 melanoma = test system: SK-MEL-5 melanoma
786-0 renal = test system: 786-0 renal
NCI-H226 lung = test system: NCI-H226 lung
HS 578T breast = test system: HS 578T breast
SF-539 CNS = test system: SF-539 CNS
CAKI-1 renal = test system: CAKI-1 renal

Structure (SMILES)	TGI (NCI-H460 lung) [µM]	TGI (ACHN renal) [µM]	TGI (SF-268 CNS) [µM]	TGI (T-47D breast) [µM]	TGI (CCRF-CEM leukemia) [µM]	TGI (SK-MEL-28 melanoma) [µM]	TGI (PC-3 prostate) [µM]	TGI (A549 NSCLC) [µM]	TGI (UACC-257 melanoma) [µM]	TGI (DU-145 prostate) [µM]	TGI (OVCAR-8 ovarian) [µM]	TGI (UACC-62 melanoma) [µM]	TGI (IGROV1 ovarian) [µM]	TGI (SK-MEL-5 melanoma) [µM]	TGI (786-0 renal) [µM]	TGI (NCI-H226 lung) [µM]	TGI (HS 578T breast) [µM]	TGI (SF-539 CNS) [µM]	TGI (CAKI-1 renal) [µM]	GI50 (SF-539 CNS)
CCN(CC)C(=S)N/N=C/c1cc(OC)ccc1O	14.3	> 100	11.3	> 100	5.71	> 100	> 100	> 100	> 100	> 100	> 100	21.6	> 100	70.5	> 100	25.5	> 100	36	–	–
Cc1cccc(N=C/C=C(\Cl)c2ccc3ccccc3c2)c1	> 80.9	30.7	> 79.4	37.2	–	63.6	53.1	> 100	39.1	36.9	43	32.5	> 60.3	37.1	34.9	> 69.3	> 96.7	40.7	34.5	–
O=C(CCc1ccc(O)c(O)c1)NCCc1cc(O)c(O)c(O)c1	40.8	> 100	> 100	> 100	> 100	> 100	> 100	54.2	> 100	> 100	36.2	> 100	> 100	66.2	32.6	> 100	> 100	> 100	–	–
CCC(c1ccc(OC)cc1)C1NC(=S)NC1=O (stereo not given)	> 50	> 50	> 50	> 50	> 50	> 50	> 50	> 50	> 50	> 50	> 50	–	> 50	> 50	> 50	> 50	> 50	> 50	> 50	–
Cc1cc(C)c(S(=O)(=O)N(CCCN)OCCON(CCCN)S(=O)(=O)c2c(C)cc(C)cc2C)c(C)c1	17	66.1	5.37	> 45.1	> 24.9	31	4.02	> 100	36.5	> 100	47.7	21.2	4.67	> 100	13.1	18.1	30.3	–	> 71.4	–
CN1C(C)(C)CC(=O)C(Br)C1(C)C (stereo not given)	> 100	> 100	> 100	> 100	> 100	> 100	> 100	> 100	> 100	> 100	> 100	> 100	> 100	> 100	> 100	> 100	> 100	–	> 100	–
CC(CNC(=O)c1ccccc1)(CNC(=O)c1ccccc1)[N+](=O)[O-]	> 100	> 100	> 100	> 100	–	–	> 100	> 100	> 100	> 100	> 100	> 100	> 100	> 100	> 100	> 100	> 100	> 100	> 100	–
CC(=O)O[C@H]1CC[C@@]2(C)C(=CC[C@@H]3[C@@H]2CC[C@](C)(c2nnc(C)o2)[C@H]3CC#N)C1	–	> 100	> 100	> 100	> 100	–	> 100	> 100	> 100	> 100	> 100	> 100	> 100	> 100	> 100	> 100	> 100	> 100	> 100	–
CSC1=C(C#N)C(=O)N(c2ccc(C)cc2)C(=O)C1C#N (stereo not given)	> 100	> 100	> 100	> 100	> 100	> 100	> 100	> 100	> 100	> 100	–	> 100	> 100	> 100	> 100	> 100	> 100	> 100	> 100	–
CC(C)CC(NC=O)C(=O)NC(Cc1ccccc1)NC(=O)CNC(=O)C(C)NC(=O)C(N)Cc1ccc(O)cc1 (stereo not given)	> 100	> 100	> 100	> 100	–	> 100	> 100	> 100	–	> 100	> 100	> 100	> 100	> 100	> 100	> 100	> 100	> 100	> 100	–
O=C(Oc1c(Br)cc(Br)cc1C(=O)Oc1ccccc1)C(=O)Oc1c(Br)cc(Br)cc1C(=O)Oc1ccccc1	> 100	> 100	> 100	75	–	> 100	69.6	73.8	> 100	> 100	> 100	> 100	> 100	31	50.3	46	> 100	51.8	57.9	–
O=c1nc2c(c(-c3ccc(F)cc3)[nH]1)COC/C2=C\c1ccc(F)cc1	> 100	> 100	> 100	> 100	> 100	–	> 100	–	> 100	> 100	> 100	> 100	> 100	> 100	> 100	> 100	> 100	> 100	> 100	–
Nc1nc(N)c2ncn(-c3ccccc3)c2n1	–	> 100	> 100	> 100	> 100	> 100	> 100	> 100	> 100	> 100	> 100	> 100	> 100	> 100	> 100	> 100	> 100	> 100	> 100	> 100 µM and 49.2 µM
Cn1nc(-c2ccccc2)c2c(-c3ccccc3)c3cc(Cl)ccc3nc21	> 100	> 100	> 100	> 100	> 100	> 100	> 100	> 100	> 100	> 100	> 100	> 100	> 100	> 100	> 100	> 100	> 100	–	> 100	–
CCOC(=O)Nc1n[nH]nc1Cl	> 100	–	> 100	> 100	–	> 100	> 100	> 100	> 100	> 100	> 100	> 100	> 100	> 100	> 100	> 100	> 100	> 100	> 100	–
COc1ccccc1NC(=O)C(=O)Cc1cnc2ccccc2n1	> 100	> 100	> 100	> 100	> 100	> 100	> 100	> 100	> 100	> 100	> 100	> 100	–	> 100	> 100	> 100	> 100	> 100	> 100	–
O=C1Nc2ccccc2/C1=C\c1c(-c2ccccc2)nc2n1CCS2	41.9	> 100	86.9	76.8	> 100	> 100	48.3	> 100	45.9	40.7	> 100	27.4	> 100	30.2	45.5	–	75.2	39.1	> 100	–
C/C1=C/C[C@@H](/C(C)=C/c2csc(C)n2)OC(=O)C[C@H](O)C(C)(C)C(=O)[C@H](C)[C@@H](O)[C@@H](C)CCC1	0.23	0.323	–	0.361	0.894	–	0.193	0.181	–	< 0.0001	0.295	0.247	0.215	0.167	0.228	0.214	< 0.0001	< 0.0001	0.305	–
Fc1cccc(C2SCc3nc4cc5ccccc5cc4n32)c1 (stereo not given)	–	> 100	> 100	> 100	> 100	> 100	> 100	> 100	> 100	> 100	> 100	> 100	> 100	–	> 100	> 100	> 100	> 100	> 100	–
CCOC(=O)C1(C#N)C(C#N)(C#N)C1(C#N)C#N	> 100	> 100	> 100	> 100	> 100	> 100	> 100	> 100	> 100	> 100	> 100	> 100	> 100	> 100	> 100	> 100	> 100	–	> 100	–
CN1CC=C(c2cccn2C)CC1	–	> 100	> 100	> 100	> 100	> 100	> 100	> 100	> 100	> 100	> 100	> 100	> 100	> 100	> 100	> 100	> 100	–	> 100	–
